According to US8557833B2, “Aminopyrimidines useful as kinase inhibitors” (priority 2005, dated 2013):
Where two headings read alike, the source gives them in different places.

What was measured:
[1] = Microsomal stability assay; assay type: in vitro ADME; details: 5 μM compound, 1 mg/mL liver microsome protein, 37° C., species not given
Description: Microsomal stability was monitored by generation of depletion-time profiles in microsomes from a range of species (male CD-1 mouse, male Sprague-Dawley rat, male Beagle dog, male Cynomolgus monkey and pooled mixed gender human). Compound spiking solutions were made up by diluting down the compound stock solution in DMSO (typically 10 mM) to give a solution in acetonitrile (0.5 mM). […].
The reaction was initiated by the addition (250 μL) of the pre-incubated RGS to the pre-incubated microsome/VRT/PB mixture (pre-incubation in both instances was for 10 minutes at 37° C.). Samples were incubated within Eppendorf vials (1.5 ml) on a heater shaker (DPC Micromix 5 (settings; form 20, amplitude 4) modified to be heated, to 37° C., by two plate heaters fixed to the deck and controlled by a Packard Manual Heater) attached to a Multiprobe II HT Ex automated liquid handler. The liquid handler was programmed (WinPREP software) to sample the microsomal incubation mixture after 0, 2, 10, 30 and 60 minutes of incubation and transfer an aliquot (100 μL) to a stop block (96-well block) containing 100 μL of chilled methanol. The % organic in the stop mixture was optimized for analysis by addition of appropriate volumes of aqueous/organic (typically 100 μl of 50:50 methanol:water).
Prior to analysis the stop block was placed on a shaker (DPC Micromix 5; 10 min, form 20, amplitude 5) to precipitate out proteins. The block was then centrifuged (Jouan GR412; 2000 rpm, 15 min, 4° C.). A sample aliquot (200 μL) was then transferred to an analysis block and the block was centrifuged again (Jouan GR412; 2000 rpm, 5 min, 4° C.) prior to being sent for analysis. Depletion profiles were determined by monitoring the disappearance of VRT by liquid chromatography-tandem mass spectrometry (LC-MS/MS). Samples were injected (20 μL; Agilent 1100 liquid chromatographic system equipped with autosampler) onto an analytical column. Mobile phase consisted of Water+0.05% (v/v) formic acid (A) and methanol+0.05% (v/v) formic acid (B).
Running a gradient method optimized for the compound of interest carried out the compound elution from analytical column. The total run time was 6 minutes with a flow rate of 0.35 mL/min. The entire column effluent entered the electrospray ionization source (positive mode) of a Micromass Quattro LC tandem mass spectrometer between 0.5 and 5.9 min of the run. The mass spectrometry was optimized for the compound of interest. All incubations were conducted in duplicate and results were expressed as % parent remaining at either 30 minutes or 60 minutes relative to 0 minutes sample.

[2] = molecular target: T1, JAK3 (Homo sapiens, UniProt P52333); test: biochemical
T1 sequence (P52333 1-1124): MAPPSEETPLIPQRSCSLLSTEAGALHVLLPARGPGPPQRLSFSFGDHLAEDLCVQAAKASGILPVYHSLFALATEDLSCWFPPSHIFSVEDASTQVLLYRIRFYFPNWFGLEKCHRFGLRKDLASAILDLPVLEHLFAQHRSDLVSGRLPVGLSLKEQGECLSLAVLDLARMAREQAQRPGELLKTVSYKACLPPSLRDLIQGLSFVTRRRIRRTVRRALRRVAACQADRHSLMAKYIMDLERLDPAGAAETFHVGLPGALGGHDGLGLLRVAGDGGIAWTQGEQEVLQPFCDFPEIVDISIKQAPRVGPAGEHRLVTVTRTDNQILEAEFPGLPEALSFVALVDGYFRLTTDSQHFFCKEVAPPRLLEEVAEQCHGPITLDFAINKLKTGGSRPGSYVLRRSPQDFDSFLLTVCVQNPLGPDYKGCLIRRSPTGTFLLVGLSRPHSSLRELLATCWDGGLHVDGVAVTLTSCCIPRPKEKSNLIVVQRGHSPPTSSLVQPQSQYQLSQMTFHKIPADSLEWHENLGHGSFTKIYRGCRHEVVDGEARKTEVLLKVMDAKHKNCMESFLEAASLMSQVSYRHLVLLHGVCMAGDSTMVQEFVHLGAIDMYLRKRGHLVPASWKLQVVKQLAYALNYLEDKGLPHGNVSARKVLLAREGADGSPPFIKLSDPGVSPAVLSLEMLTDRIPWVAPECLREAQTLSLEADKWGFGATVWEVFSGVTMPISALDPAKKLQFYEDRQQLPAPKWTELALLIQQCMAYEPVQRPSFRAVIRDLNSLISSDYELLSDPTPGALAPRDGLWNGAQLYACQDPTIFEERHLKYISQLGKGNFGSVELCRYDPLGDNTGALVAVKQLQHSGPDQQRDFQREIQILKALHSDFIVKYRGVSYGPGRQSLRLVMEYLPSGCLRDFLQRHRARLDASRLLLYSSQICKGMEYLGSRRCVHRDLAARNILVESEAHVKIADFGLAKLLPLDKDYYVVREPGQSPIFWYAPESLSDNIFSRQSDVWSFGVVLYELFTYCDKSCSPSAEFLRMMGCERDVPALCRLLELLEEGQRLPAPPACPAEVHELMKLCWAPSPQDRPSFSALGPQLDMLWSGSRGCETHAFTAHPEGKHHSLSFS
Description: Reactions were carried out in a kinase buffer containing 100 mM HEPES (pH 7.4), 1 mM DTT, 10 mM MgCl2, 25 mM NaCl, and 0.01% BSA. Substrate concentrations in the assay were 5 μM ATP (200 uCi/μmole ATP) and 1 μM poly(Glu)4Tyr. Reactions were carried out at 25° C. and 1 nM JAK3.
To each well of a 96 well polycarbonate plate was added 1.5 μl of a candidate JAK3 inhibitor along with 50 μl of kinase buffer containing 2 μM poly(Glu)4Tyr and 10 μM ATP. This was then mixed and 50 μl of kinase buffer containing 2 nM JAK3 enzyme was added to start the reaction. After 20 minutes at room temperature (25 C), the reaction was stopped with 50 μl of 20% trichloroacetic acid (TCA) that also contained 0.4 mM ATP. The entire contents of each well were then transferred to a 96 well glass fiber filter plate using a TomTek Cell Harvester. After washing, 60 μl of scintillation fluid was added and ^33P incorporation detected on a Perkin Elmer TopCount.

[3] = molecular target: Aurora-1 (Aurora B) (Homo sapiens, UniProt Q96GD4); test: Aurora-1 (Aurora B) inhibition assay (radiometric); assay type: biochemical
Aurora-1 (Aurora B), sequence (Q96GD4 whole entry): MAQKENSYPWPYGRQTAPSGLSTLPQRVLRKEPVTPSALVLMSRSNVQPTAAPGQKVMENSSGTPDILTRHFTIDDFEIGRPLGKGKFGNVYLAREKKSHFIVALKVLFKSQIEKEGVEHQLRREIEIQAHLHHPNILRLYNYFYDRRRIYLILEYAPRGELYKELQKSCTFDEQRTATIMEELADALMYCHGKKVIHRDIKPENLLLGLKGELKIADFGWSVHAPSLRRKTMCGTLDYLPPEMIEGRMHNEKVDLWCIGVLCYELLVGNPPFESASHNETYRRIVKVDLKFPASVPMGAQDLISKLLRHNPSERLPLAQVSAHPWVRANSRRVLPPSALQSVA
Description: An assay buffer solution was prepared which consisted of 25 mM HEPES (pH 7.5), 10 mM MgCl2, 0.1% BSA and 10% glycerol. […] To 22 μL of the Aurora-B solution, in a 96-well plate, was added 2 μl of a compound stock solution in DMSO and the mixture allowed to equilibrate for 10 minutes at 25° C. The enzyme reaction was initiated by the addition of 16 μl stock [γ-^33P]-ATP solution (˜20 nCi/μL) prepared in assay buffer, to a final assay concentration of 800 μM. The reaction was stopped after 3 hours by the addition of 16 μL 500 mM phosphoric acid and the levels of ^33P incorporation into the peptide substrate were determined by the following method.
A phosphocellulose 96-well plate (Millipore, Cat no. MAPHNOB50) was pre-treated with 100 μL of a 100 mM phosphoric acid prior to the addition of the enzyme reaction mixture (40 μL). The solution was left to soak on to the phosphocellulose membrane for 30 minutes and the plate subsequently washed four times with 200 μL of a 100 mM phosphoric acid. […] Levels of non-enzyme catalyzed background radioactivity were determined by adding 16 μL of the 500 mM phosphoric acid to control wells, containing all assay components (which acts to denature the enzyme), prior to the addition of the [γ-^33P]-ATP solution. Levels of enzyme catalyzed ^33P incorporation were calculated by subtracting mean background counts from those measured at each inhibitor concentration. […] Ki values were calculated from initial rate data by non-linear regression using the Prism software package (Prism 3.0, Graphpad Software, San Diego, Calif.).

[4] = 800 μM ATP, Kemptide, 25° C., read-out: Aurora B Ki
[5] = 5 μM ATP, 1 μM poly(Glu)4Tyr, 25° C., 1 nM JAK3, read-out: JAK-3 Ki

## Cc1cc(Nc2cc(N3CCC3)nc(Sc3ccc(NC(=O)c4ccccc4Cl)cc3)n2)[nH]n1 [Compound I-1, N-{4-[4-Azetidin-1-yl-6-(5-methyl-2H-pyrazol-3-ylamino)-pyrimidin-2-ylsulfanyl]-phenyl}-2-chloro-benzamide]
[1]
  Microsomal Stability (% remaining after 30 min.): 96%
  Microsomal Stability (% remaining after 60 min.): 79%
[2]
  Ki: 160 nM
[3]; [4]
  Ki: 7 nM

## Cc1cc(Nc2cc(N3CCC3)nc(Sc3ccc(NC(=O)c4c(F)cccc4F)cc3)n2)[nH]n1 [Compound I-2, N-{4-[4-Azetidin-1-yl-6-(5-methyl-2H-pyrazol-3-ylamino)-pyrimidin-2-ylsulfanyl]-phenyl}-2,6-Difluoro-benzamide]
[1]
  Microsomal Stability (% remaining after 30 min.): 107%
  Microsomal Stability (% remaining after 60 min.): 77%
[3]; [4]
  Ki: 6.5 nM

## Cc1cc(Nc2cc(N3CCC3)nc(Sc3ccc(NC(=O)c4ccccc4F)cc3)n2)[nH]n1 [Compound I-3]
[1]
  Microsomal Stability (% remaining after 30 min.): 51%
  Microsomal Stability (% remaining after 60 min.): 66%
[3]; [4]
  Ki: 10 nM

## Cc1cccc(C(=O)Nc2ccc(Sc3nc(Nc4cc(C)[nH]n4)cc(N4CCC4)n3)cc2)c1 [Compound I-4]
[1]
  Microsomal Stability (% remaining after 30 min.): 76%
[3]
  Ki: 24 nM

## Cc1cc(Nc2cc(N3CCC3)nc(Sc3ccc(NC(=O)c4ccccc4C)cc3)n2)[nH]n1 [Compound I-5]
[1]
  Microsomal Stability (% remaining after 30 min.): 98%
  Microsomal Stability (% remaining after 60 min.): 65%
[3]; [4]
  Ki: 14 nM

## COc1ccccc1C(=O)Nc1ccc(Sc2nc(Nc3cc(C)[nH]n3)cc(N3CCC3)n2)cc1 [Compound I-6]
[1]
  Microsomal Stability (% remaining after 30 min.): 80%
[3]; [4]
  Ki: 26 nM

## Cc1cc(Nc2cc(N3CCC3)nc(Sc3ccc(NC(=O)c4ccccc4OC(F)(F)F)cc3)n2)[nH]n1 [Compound I-8]
[1]
  Microsomal Stability (% remaining after 30 min.): 100%
[3]; [4]
  Ki: 11 nM

## Cc1cc(Nc2cc(N3CCC3)nc(Sc3ccc(NC(=O)c4c(Cl)cccc4Cl)cc3)n2)n[nH]1 [Compound I-11]
[1]
  Microsomal Stability (% remaining after 60 min.): 69%
[3]; [4]
  Ki: 7 nM

## Cc1cc(Nc2cc(N3CCC3)nc(Sc3ccc(NC(=O)c4cccc(Cl)c4)cc3)n2)n[nH]1 [Compound I-12]
[1]
  Microsomal Stability (% remaining after 30 min.): 94%
[3]; [4]
  Ki: 19 nM

## Cc1cc(Nc2cc(N3CCC3)nc(Sc3ccc(NC(=O)c4cccc(C(F)(F)F)c4F)cc3)n2)n[nH]1 [Compound I-13]
[1]
  Microsomal Stability (% remaining after 30 min.): 85%
  Microsomal Stability (% remaining after 60 min.): 74%
[2]
  Ki: 220 nM
[3]
  Ki: 6 nM

## Cc1cc(Nc2cc(N3CCC3)nc(Sc3ccc(NC(=O)c4ccccc4C(F)(F)F)cc3)n2)[nH]n1 [Compound I-14]
[1]
  Microsomal Stability (% remaining after 30 min.): 103%
  Microsomal Stability (% remaining after 60 min.): 78%
[3]; [4]
  Ki: 4.5 nM

## Cc1cc(Nc2cc(N3CCC3)nc(Sc3ccc(NC(=O)c4cccc(Cl)c4F)cc3)n2)n[nH]1 [Compound I-15]
[1]
  Microsomal Stability (% remaining after 30 min.): 73%
  Microsomal Stability (% remaining after 60 min.): 84%
[2]; [5]
  Ki: 120 nM
[3]; [4]
  Ki: 7.5 nM

## O=C(Nc1ccc(Sc2nc(Nc3cc(C4CC4)[nH]n3)cc(N3CCC3)n2)cc1)c1ccccc1Cl [Compound I-17]
[1]
  Microsomal Stability (% remaining after 30 min.): 93%
[2]; [5]
  Ki: 79 nM
[3]; [4]
  Ki: 6 nM

## Cc1cc(Nc2cc(N3CCC3)nc(Sc3ccc(NC(=O)c4ccccc4C(F)F)cc3)n2)[nH]n1 [Compound I-19]
[1]
  Microsomal Stability (% remaining after 30 min.): 109%
  Microsomal Stability (% remaining after 60 min.): 91%
[3]; [4]
  Ki: 19 nM

## Cc1cc(Nc2cc(N3CCC3)nc(Sc3ccc(NC(=O)c4cccc(C)c4Cl)cc3)n2)n[nH]1 [Compound I-20]
[1]
  Microsomal Stability (% remaining after 30 min.): 53%
[2]
  Ki: 61 nM
[3]; [4]
  Ki: 6 nM

## Cc1cc(Nc2cc(N3CCC3)nc(Sc3ccc(NC(=O)c4cc(Cl)ccc4Cl)cc3)n2)n[nH]1 [Compound I-21]
[1]
  Microsomal Stability (% remaining after 30 min.): 86%
[3]; [4]
  Ki: 6.5 nM

## CCc1cccc(C(=O)Nc2ccc(Sc3nc(Nc4cc(C)[nH]n4)cc(N4CCC4)n3)cc2)c1Cl [Compound I-22]
[1]
  Microsomal Stability (% remaining after 30 min.): 1%
  Microsomal Stability (% remaining after 60 min.): 46%
[2]
  Ki: 62 nM
[3]; [4]
  Ki: < 6 nM
